Laboratory results from PMC10892041, “Vanadium Complexes with Thioanilide Derivatives of Amino Acids: Inhibition of Human Phosphatases and Specificity in Various Cell Models of Metabolic Disturbances” (Pharmaceuticals, 2024).

Key:
SHP1 = target: T1, SHP1 (Homo sapiens, UniProt P29350); test: Inhibition of human recombinant tyrosine phosphatase SHP1 (DiFMUP fluorescence); assay type: biochemical; conditions: 1 µM; control solvent only; SD did not exceed 6%
T1 construct: purchased Sigma-Aldrich
Procedure, shortened: (§1)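 Human recombinant phosphatases (SHP1 400 ng/mL, SHP2 50 ng/mL, LAR 5 ng/mL final) were pre-incubated 10 min with compound in 25 mM MOPS pH 7.0, 50 mM NaCl, 1 mM DTT, 0.05% Tween-20. DiFMUP (0.1 mM final) was added for 20 min at 23 °C and fluorescence read at 355/560 nm. Screening used 1 µM compound (% inhibition vs vehicle); IC50 also reported.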

PTP1B = target: T2, PTP1B (Homo sapiens, UniProt P18031); test: Inhibition of human recombinant tyrosine phosphatase PTP1B (DiFMUP fluorescence); assay type: biochemical; conditions: 1 µM; control solvent only; SD did not exceed 6%
T2 construct: purchased Sigma-Aldrich
T2 sequence (P18031 1-435): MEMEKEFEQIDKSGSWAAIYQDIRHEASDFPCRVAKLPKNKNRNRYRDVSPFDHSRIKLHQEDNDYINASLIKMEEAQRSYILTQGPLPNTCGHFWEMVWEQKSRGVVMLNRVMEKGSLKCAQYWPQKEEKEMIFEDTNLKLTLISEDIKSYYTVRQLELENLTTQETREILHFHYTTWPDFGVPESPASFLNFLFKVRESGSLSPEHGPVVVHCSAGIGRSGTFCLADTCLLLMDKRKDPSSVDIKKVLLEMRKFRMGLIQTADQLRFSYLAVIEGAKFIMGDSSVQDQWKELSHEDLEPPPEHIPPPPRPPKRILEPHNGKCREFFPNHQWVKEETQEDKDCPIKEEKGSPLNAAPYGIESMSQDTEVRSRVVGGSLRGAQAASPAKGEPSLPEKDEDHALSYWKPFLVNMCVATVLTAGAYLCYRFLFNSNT
Procedure, shortened: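 Human recombinant PTP1B (final 50 ng/mL) in buffer of 25 mM MOPS, 50 mM NaCl, 1 mM DTT and 0.05% Tween-20 (pH 7.0) was dispensed onto test compound in black 384-well plates. After 10 min, DiFMUP was added to 0.1 mM. Plates were incubated 20 min at 23 °C and fluorescence read (ex 355, em 560 nm). Assays were run in triplicate, with inhibition relative to enzyme-plus-vehicle control and IC50 fitted in GraphPad Prism.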

adipocytes 3T3-L1 = system: adipocytes 3T3-L1; design: method as in doi:10.1016/j.poly.2020.114589; conditions: 50 µM; previously published by the authors; cited from earlier work
SHP2 = target: T3, SHP2 (Homo sapiens, UniProt Q06124); test: Inhibition of human recombinant tyrosine phosphatase SHP2 (DiFMUP fluorescence); assay type: biochemical; conditions: 1 µM; control solvent only; SD did not exceed 6%
T3 construct: purchased Sigma-Aldrich
T3 sequence (Q06124 1-593): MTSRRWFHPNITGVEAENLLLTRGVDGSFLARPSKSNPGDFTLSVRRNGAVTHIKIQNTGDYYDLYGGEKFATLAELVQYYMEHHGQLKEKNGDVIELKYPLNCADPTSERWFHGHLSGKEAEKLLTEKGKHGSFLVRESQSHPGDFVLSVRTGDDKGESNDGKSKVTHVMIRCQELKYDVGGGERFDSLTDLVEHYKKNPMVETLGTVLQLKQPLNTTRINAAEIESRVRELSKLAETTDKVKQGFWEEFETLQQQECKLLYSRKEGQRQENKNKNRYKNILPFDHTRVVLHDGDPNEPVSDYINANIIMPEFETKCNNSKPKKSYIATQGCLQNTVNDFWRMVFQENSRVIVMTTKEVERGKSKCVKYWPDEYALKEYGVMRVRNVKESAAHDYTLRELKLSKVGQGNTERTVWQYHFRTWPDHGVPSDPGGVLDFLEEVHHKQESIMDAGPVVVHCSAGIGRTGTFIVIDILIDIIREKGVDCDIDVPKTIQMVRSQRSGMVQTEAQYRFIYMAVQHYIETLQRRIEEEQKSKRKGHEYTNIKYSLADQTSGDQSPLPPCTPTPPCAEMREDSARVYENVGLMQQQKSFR
Procedure, shortened: as §1

LAR = target: T4, LAR (Homo sapiens, UniProt P10586); test: Inhibition of human recombinant tyrosine phosphatase LAR (DiFMUP fluorescence); assay type: biochemical; conditions: 1 µM; control solvent only; SD did not exceed 6%
T4 sequence (P10586 1352-1607 limits assumed): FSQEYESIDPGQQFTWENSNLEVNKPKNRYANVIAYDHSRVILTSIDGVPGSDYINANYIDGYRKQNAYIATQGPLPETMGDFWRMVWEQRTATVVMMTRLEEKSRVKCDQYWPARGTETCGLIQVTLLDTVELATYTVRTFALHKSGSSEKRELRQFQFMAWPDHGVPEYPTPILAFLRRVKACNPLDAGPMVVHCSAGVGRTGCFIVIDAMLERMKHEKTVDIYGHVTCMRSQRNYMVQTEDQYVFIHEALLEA
Procedure, shortened: as §1

hepatocytes HepG2 [1] = test: Inhibition of hepatic gluconeogenesis (glucose synthesis); conditions: known inhibitors of gluconeogenesis; concentration not given
hepatocytes HepG2 [2] = conditions: 1 mM
Procedure: Hepatocytes HepG2, myocytes C2C12 (after 8 days differentiation), and adipocytes 3T3-L1 (after 11 days of differentiation) were cultured and maintained as described in the section above but pleated on a ScintiPlate TC 96-well microplate coated with a solid-phase scintillator (PerkinElmer). Hepatocytes and myocytes were washed, and culture medium was changed for medium with 0.5% BSA instead of serum. After 24 h incubation, the tested complexes were added. After 2 h incubation at 37 °C in 5% CO2, the medium was changed to low-glucose medium (1000 mg/L), and the tested complexes were added again, with further incubation for 4 h being conducted. […] Wortmannin at a final concentration of 200 nM (Sigma-Aldrich ) was used as a negative control. After that, cells were washed three times with cold KRB, and cytochalasin B (10 mM final) was added for several wells as a ‘‘no uptake” control, which proceeded as shown below.
For cells proceeded as above, 2-deoxy-D-[U-14C]-glucose (250–350 mCi/mmol, NEC720A, PerkinElmer) solution in KRB with a total activity of 0.03 mCi was added to each well. […] The radioactivity of samples was measured in a scintillation counter, MicroBeta Trilux 1450 (PerkinElmer). Non-specific radioactivity was subtracted from each result (cpm). […] The final results were expressed as percent of the control that contained solvent only instead of the tested compound.

T1 sequence (P29350 whole entry): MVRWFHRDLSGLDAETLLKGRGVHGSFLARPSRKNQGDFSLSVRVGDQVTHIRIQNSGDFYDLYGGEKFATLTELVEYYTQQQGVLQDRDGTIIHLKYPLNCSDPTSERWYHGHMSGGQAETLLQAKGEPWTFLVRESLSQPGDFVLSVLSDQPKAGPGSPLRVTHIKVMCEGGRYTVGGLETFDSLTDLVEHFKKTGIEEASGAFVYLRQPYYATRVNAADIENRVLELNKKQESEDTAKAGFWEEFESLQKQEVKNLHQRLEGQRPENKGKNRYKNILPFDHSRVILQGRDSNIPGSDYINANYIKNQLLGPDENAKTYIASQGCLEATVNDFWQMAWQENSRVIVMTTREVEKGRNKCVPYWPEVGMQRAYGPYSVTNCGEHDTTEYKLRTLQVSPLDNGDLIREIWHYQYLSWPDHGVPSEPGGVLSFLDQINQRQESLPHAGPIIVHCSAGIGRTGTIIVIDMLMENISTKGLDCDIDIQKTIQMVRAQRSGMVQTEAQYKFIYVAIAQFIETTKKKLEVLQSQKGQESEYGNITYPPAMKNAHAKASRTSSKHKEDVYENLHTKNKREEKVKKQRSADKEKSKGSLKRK

| Inhibition of SHP1, percentage of inhibition of the control (SHP1) [%] | Inhibition of PTP1B, percentage of inhibition of the control (PTP1B) [%] | Inhibition of SHP2, percentage of inhibition of the control (SHP2) [%] | Inhibition of LAR, percentage of inhibition of the control (LAR) [%] | Inhibition of glucose synthesis by hepatocytes, experimental control compounds (hepatocytes HepG2 [1]) | Potentiation of [14C]-deoxy-D-glucose transport to hyperinsulinemia-induced insulin-resistant hepatocytes (hepatocytes HepG2 [2]) | Compound | Transport of [14C]-deoxy-D-glucose into 3T3-L1 adipocytes, % of control (adipocytes 3T3-L1) |
| --- | --- | --- | --- | --- | --- | --- | --- |
| 62 | 31 | 68 | 25 |  |  | O=C(NN=Cc1cc(Br)ccc1[O][V]1[O]C(c2ccccc2O)=NN=Cc2cc(Br)ccc2[O]1)c1ccccc1O [VC029, [V(L7)(HL7)]] | statistically significant activity |
|  |  |  |  | showed inhibition of glucose synthesis | did not potentiate | CN(C)C(=N)N=C(N)N [metformin] |  |
